Measurements: patent publication US20230123104A1, “CRYSTAL OF TRICYCLIC COMPOUND ACTING ON CRBN PROTEIN AND PREPARATION METHOD THEREFOR” (CHIA TAI TIANQING PHARMACEUTICAL GROUP CO., LTD., priority 2020, published 2023)

Columns and labels:
[1] = test system: multiple myeloma cell line MM.1S; assay: Antiproliferative effect, CellTiter-Glo cell viability assay, MM.1S; type: cell-based, human
Description: (§1) In this experiment, the inhibition of cell proliferation in multiple myeloma cell lines MM.1S and NCI-H929 by the compound of formula (I) was detected.
(§2) The tumor cell lines were cultured in an incubator at 37° C. with 5% CO2 under the culture conditions described above. Periodical passaging was performed, and cells growing at log phase were used for plating.
(§3) (1) Cells were stained with trypan blue and viable cells were counted.
(§4) (2) The cell concentration was adjusted to an appropriate level.
(§5) (3) 90 μL of cell suspension was added to each well in the culture plate and cell-free medium was added to the blank control wells according to the table above.
(§6) (4) The culture plate was incubated overnight in an incubator at 37° C. with 5% CO2 and 100% relative humidity. […]
(§7) The following procedure was performed according to the instructions of Promega CellTiter-Glo luminescence cell viability assay kit (Promega-G7573). […]
(§8) (8) The culture plate was placed at room temperature for 10 min to stabilize the luminescence signals.
(§9) (9) The luminescence signals were detected on 2104 EnVision plate reader.
(§10) Inhibition rates of the compound of formula (I) at different concentrations were calculated in Excel, followed by plotting the inhibition curves and calculating relevant parameters including minimum inhibition rate, maximum inhibition rate and IC50 using GraphPad Prism software.

[2] = Pharmacokinetic evaluation in mice; type: in vivo, C57BL male mice
Source text: (§11) The test animals in the study were C57BL male mice, and the LC/MS/MS method was used to quantitatively determine the drug concentration in the plasma of the mice at different time points after intravenous injection or oral administration of the test compound, thus evaluating the pharmacokinetic characteristics of the compound of formula (I) in the mice.
C57Balb/C (C57) mice (male, 20-30 g, 7-10 weeks old, Beijing Vital River or Shanghai SLAC).
Clear or suspended solution of the compound of formula (I) was injected into C57 mice (fasted overnight) via the tail vein or administered intragastrically to C57 mice (fasted overnight). For intravenous injection, […] of blood was each collected by jugular vein puncture at 0 h (before injection) and 0.0833 h, 0.25 h, 0.5 h, 1 h, 2 h, 4 h, 6 h, 8 h and 24 h (after injection), and then placed in an anticoagulation tube added with EDTA-K2 (Jiangsu KANGJIAN Medical Apparatus Co., Ltd.), and the mixture was thoroughly vortex-mixed at 4° C. and centrifuged at 13000 rpm for 10 min; for intragastric administration, blood was collected by jugular vein puncture at 0 h (before administration) and 0.5 h, 1 h, 2 h, 4 h, 6 h, 8 h and 24 h (after administration), and then placed in an anticoagulation tube added with EDTA-K2 (Jiangsu KANGJIAN Medical Apparatus Co., Ltd.), and the mixture was thoroughly vortex-mixed and centrifuged at 13000 rpm for 10 min. The plasma concentration was measured by LC-MS/MS, and the relevant pharmacokinetic parameters were calculated using WinNonlin™ Version 6.3 (Pharsight, Mountain View, Calif.), a pharmacokinetic software, with a non-compartmental model linear-log trapezoidal method.

[3] = Pharmacokinetic evaluation in rats; type: in vivo, SD male rats
Source text: as §11, with “SD” for “C57BL”, “rats,” for “mice,”, “rats” for “mice”, “compound of formula (I),” for “test compound,”, “rats.” for “mice.”
Sprague Dawley (SD) rats (male, 200-300 g, 7-10 weeks old, Beijing Vital River or Shanghai SLAC).
Clear solution of the compound of formula (I) was injected into SD rats (fasted overnight) via the tail vein or administered intragastrically to SD rats (fasted overnight). For intravenous injection, 200 μL of blood was each collected by jugular vein puncture at 0 h (before injection) and 0.0833 h, 0.25 h, 0.5 h, 1 h, 2 h, 4 h, 6 h, 8 h and 24 h (after injection), and then placed in an anticoagulation tube added with EDTA-K2 (Jiangsu KANGJIAN Medical Apparatus Co., Ltd.), and the mixture was thoroughly vortex-mixed at 4° C. and centrifuged at 13000 rpm for 10 min; for intragastric administration, blood was collected by jugular vein puncture at 0 h (before administration) and 0.5 h, 1 h, 2 h, 4 h, 6 h, 8 h and 24 h (after administration), and then placed in an anticoagulation tube added with EDTA-K2 (Jiangsu KANGJIAN Medical Apparatus Co., Ltd), and the mixture was thoroughly vortex-mixed and centrifuged at 13000 rpm for 10 min. The plasma concentration was measured by LC-MS/MS, and the relevant pharmacokinetic parameters were calculated using WinNonlin™ Version 6.3 (Pharsight, Mountain View, Calif.), a pharmacokinetic software, with a non-compartmental model linear-log trapezoidal method.

[4] = test system: multiple myeloma cell line NCI-H929; assay: Antiproliferative effect, CellTiter-Glo cell viability assay, NCI-H929; type: cell-based
Description: as §1, §2, §3, §4, §5, §6, §7, §8, §9, §10

[5] = test system: human myeloma MM.1S cells; assay: In vivo pharmacodynamic study in subcutaneous xenograft tumor CB-17 SCID model; design: species or system CB-17 SCID mice; conditions: 5 mg/kg oral, twice daily
Description: Cell culturing: human multiple myeloma cells MM.1S (ATCC® CRL-2974™) were cultured in vitro, in a semi-suspension manner, with an ATCC-formulated RPMI-1640 medium containing 10% fetal calf serum, 100 U/mL penicillin and 100 μg/mL streptomycin in an incubator at 37° C. with 5% CO2. Passages were performed twice a week. At a required number, the cells were taken, counted and inoculated.
Animals: CB-17 SCID mice, female, 6-8 weeks old, weighing 18-20 g.
0.2 mL (5×10^6 cells) of MM.1S cells (along with matrigel in a volume ratio of 1:1) was subcutaneously inoculated on the right back of each mouse, and the mice were divided into groups for administration after the mean tumor volume was approximately 130 mm^3. Seven days constitute an administration cycle, twice daily with a 12 h interval, and the compound of formula (I) was orally administered for a total of four cycles. The compound of formula (I) was administered at a dose of 5 mg/kg, tumor volume was measured twice weekly with a two-dimensional caliper, and the volume was measured in cubic millimeters and calculated according to the following formula: V=0.5a×b^2, where a and b are the long and short diameters, respectively, of the tumor. Anti-tumor efficacy was determined by dividing the mean tumor increase volume of animals treated with the compound of formula (I) by the mean tumor increase volume of untreated animals.

[6] = intravenous injection (2 mg/kg)
[7] = intragastric administration (10 mg/kg)

SMILES: O=C1CCC(c2noc3ccc4[nH]ccc4c23)C(=O)N1 (centres unmarked) [Compound of formula (I)]
- inhibitory effect on cell proliferation (conclusion) [1]: excellent inhibitory effect
- IC50 ([1]; Homo sapiens, MM1.S, 120 h, co-incubated 5 days, CellTiter-Glo): 0.4 nM
- Area under plasma concentration-time curve (0-inf) [2, 6]: 5.34 µM·h
- Area under plasma concentration-time curve (0-inf) ([2]; oral administration (10 mg/kg)): 12.29 µM·h
- Bioavailability F ([2]; oral administration (10 mg/kg)): 46.1%
- Peak concentration ([2]; oral administration (10 mg/kg)): 10.52 µM
- Time to peak ([2]; oral administration (10 mg/kg)): 0.25 h
- Area under plasma concentration-time curve (0-inf) [3, 7]: 26.34 µM·h
- Bioavailability F [3, 7]: 66.5%
- Peak concentration [3, 7]: 12.75 µM
- Time to peak [3, 7]: 0.50 h
- Area under plasma concentration-time curve (0-inf) [3, 6]: 7.92 µM·h
- IC50 ([4]; Homo sapiens, 120 h, NCI-H929, co-incubated 5 days, CellTiter-Glo): 0.5 nM
- inhibitory effect on cell proliferation (conclusion) ([4]; NCI-H929): excellent inhibitory effect
- Tumor volume (Day 0) ([5]; Day 0): 131 ± 12 mm^3
- TGI (Day 24) ([5]; Day 24): 105%
- Tumor volume (Day 24) ([5]; Day 24): 14 ± 5 mm^3
